# Experimental data reported in patent US12600988B2, “Coronavirus pseudovirus packaging system, packaging method therefor, and application of coronavirus pseudovirus in evaluating disinfection efficacy” (priority 2020, dated 2026).
# Entries after “also recorded” stand apart in the source; their conditions may differ.
# System: COVID-19 pseudovirus
# Parameters: species or system COVID-19 (SARS-CoV-2)
smiles,measurement,value
O=[O+][O-] [ozone],inactivation of COVID-19 pseudovirus,almost completely inactivated; also recorded: complete inactivation
